Where only a bound is given, the exact number is not on record here.

The target in the assay is Cyclin-dependent kinase 2 (Homo sapiens, UniProt P24941). The assay can be described thus: Evaluated for inhibition of human cyclin dependent kinase 2 (CDK2).
Consider `Cc1cccc2c1NC(=O)C2C=Nc1ccc(S(N)(=O)=O)cc1` (stereo not given), for which the IC50 (as a rule, the point on the concentration scale where inhibition reaches its midpoint) was more than 10000 nM.
For the compound `CN(C)c1ccc2c(c1)C(C=Nc1ccc(S(N)(=O)=O)cc1)C(=O)N2` (stereo not given) [4-({[5-(Dimethylamino)-2-oxo-1,2-dihydro-3H-indol-3-ylidene]methyl}amino)benzenesulfonamide], half-maximal inhibition (IC50) was put at 310 nM.
Then `CNS(=O)(=O)c1ccc(N=CC2C(=O)Nc3ccc4ncsc4c32)cc1` (stereo not given) [N-Methyl-4-{[(7-oxo-6,7-dihydro-8H-[1,3]thiazolo[5,4-e]-indol-8-ylidene)methyl]amino}benzenesulfonamide], with 5.6 nM; and `Cc1cc(Cl)cc2c1NC(=O)C2C=Nc1ccc(S(N)(=O)=O)cc1` (stereo not given), with more than 10000 nM; and `O=C1Nc2ccc3ncsc3c2C1C=Nc1ccc(S(=O)(=O)NCc2ccccc2)cc1` (stereo not given) [N-Benzyl-4-{[(7-oxo-6,7-dihydro-8H-[1,3]thiazolo[5,4-e]-indol-8-ylidene)methyl]amino}benzenesulfonamide], with 5.6 nM.

These data come from BindingDB's records for doi:10.1021/jm0304358 (Yale University, 2004).
